Source: patent US20190369111A1, “MOLECULAR KINETICS EVALUATION METHOD AND SCREENING METHOD” (Tokyo University of Science Foundation, priority 2016, published 2019)

Target: T1, wild-type K-Ras protein (Mus musculus, UniProt P32883)
T1 construct: intraperitoneally administered to C57BL/6J wild-type mice; from tissue; host or cells: C57BL/6J wild-type mice: spleen, pancreas, liver, kidneys, colon, lungs, heart
Assay: Degradation of wild-type K-Ras protein in each tissue of mouse after administration, Western blot analysis
Assay type: in vivo
Method: TUS-007 was dissolved in DMSO, and then dissolved in corn oil so that the concentration of DMSO was 10 vol %, and then intraperitoneally administered to C57BL/6J wild-type mice (8 to 9 weeks old, male) (CLEA Japan, Inc.) in an amount of 40 mg/kg body weight or 80 mg/kg body weight (n=3 to 4). Furthermore, in addition to a group in which TUS-007 was administered, a group in which Ras-SOS had been administered in a dose of 80 mg/kg body weight was prepared. As a control, an injection carrier (corn oil containing 10 vol % DMSO) was used. The mice were kept under an environment of ad libitum access to food and water. The mice were dissected under deep anesthesia by Somnopentyl (Kyoritsu Seiyaku Corporation) 48 hours after administration. Abdominal section was performed, and then the spleen, pancreas, liver, kidneys, colon, lungs, and heart were sequentially extracted and flash frozen in liquid nitrogen. Each tissue frozen in liquid nitrogen was stored in a deep freezer at −80° C.
The frozen tissues (spleen: 0.02 g, other tissues: 0.04 g) were each triturated, and then 500 μL of TKM tissue lysis buffer (50 mM triethanolamine (pH 7.8), 50 mM KCl, 5 mM MgCl2, 0.25 M sucrose, 1 mM PMSF, Protein Inhibitors Cocktail-EDTA free (Nacalai Tesque, Inc.), 1 mM DTT, and a recombinant RNase inhibitor (0.2 U/μL, Takara Bio) were added, and dissolved by rotation for 15 minutes (1 rpm, 25° C.). Then, the resultant product was subjected to centrifugation (at 13800 rpm×30 minutes, 4° C.), and the supernatants (each tissue extract) were collected. The concentration of the extracted proteins was quantified by a spectrophotometer.
Each tissue extract collected was subjected to Western blot analysis. An SDS-PAGE gel was prepared using TGX™ FastCast™ Acrylamide Kit, 12% (Bio-Rad). Electrophoresis samples were prepared in a 6×SDS-PAGE sample buffer (62.5 mM Tris-HCl pH 6.8, 2% SDS, 5% 2-mercaptoethanol, 10% glycerol, 0.25% BPB), and placed on a heat block at 95° C. for 5 minutes. Electrophoresis was performed at 160 V for 60 minutes (electrophoresis buffer; 195 mM glycine, 25 mM Tris).
After electrophoresis, proteins were transferred to a PVDF membrane (Immobion™-P, Millipore) under conditions of 100 V and 1.5 hours using a tank-type blotting device and a transfer buffer (25 mM Tris-HCl, 195 mM glycine, 0.01% SDS, 15% methanol). The membrane was split into two at the position of a 25 kDa marker. The membrane after transfer was shaken and blocked in 5% skim milk/TBS-T (100 mM Tris-HCl, 150 mM NaCl, 0.1% Tween-20, pH 7.6) at room temperature for 30 minutes. After blocking, a primary antibody reaction was performed in 5% skim milk/TBS-T. As the primary antibody, an anti-K-Ras antibody (sc-30, SantaCruz, diluted 500 times) and an anti-GAPDH antibody (sc-32233, SantaCruz, diluted 20000 times) were used. The membrane was shaken at room temperature for 60 minutes (anti-K-Ras antibody) or at 4° C. overnight (anti-GAPDH antibody), and then the membrane was washed with TBS-T for 5 minutes. It is noted that washing was performed four times. After the primary antibody reaction, a secondary antibody reaction was performed in 1% skim milk/TBS-T. The membrane was shaken at room temperature for 30 minutes, and then the membrane was washed with TBS-T for 5 minutes. It is noted that washing was performed four times. Furthermore, the membrane was washed with TBS (100 mM Tris-HCl, 150 mM NaCl, pH 7.6) for 10 minutes. Subsequently, the membrane was treated with a chemiluminescence reagent Immobilon™ Western (Millipore), and then chemiluminescence was detected using a lumino image analyzer LAS-3000 (FUJIFILM Corporation). Detected bands were quantified with an image processing software ImageJ (NIH).

T1 sequence (P32883 whole entry): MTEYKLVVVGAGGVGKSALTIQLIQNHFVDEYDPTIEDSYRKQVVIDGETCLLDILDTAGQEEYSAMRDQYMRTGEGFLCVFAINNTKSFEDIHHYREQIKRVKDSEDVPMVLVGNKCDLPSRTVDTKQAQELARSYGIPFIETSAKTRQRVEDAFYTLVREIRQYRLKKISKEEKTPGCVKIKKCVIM

## CC[C@@H](C)[C@H](NC(=O)CCCCCCNC(=O)[C@H](CC(C)C)NC(=O)CNC(=O)c1cc(Cl)ccc1Cl)C(=O)Nc1ccc2[nH]c(Cc3c[nH]c4ccccc34)nc2c1 [TUS-007]
Intraperitoneal 40 or 80 mg/kg body weight, 48 hours after administration, colon
  amount of wild-type K-Ras protein in colon: reduced in a concentration dependent manner
Intraperitoneal 40 or 80 mg/kg body weight, 48 hours after administration, heart
  amount of wild-type K-Ras protein in heart: not reduced
Intraperitoneal 40 or 80 mg/kg body weight, 48 hours after administration, kidneys
  amount of wild-type K-Ras protein in kidneys: reduced in a concentration dependent manner
Intraperitoneal 40 or 80 mg/kg body weight, 48 hours after administration, liver
  amount of wild-type K-Ras protein in liver: not reduced
Intraperitoneal 40 or 80 mg/kg body weight, 48 hours after administration, lungs
  amount of wild-type K-Ras protein in lungs: not reduced
Intraperitoneal 40 or 80 mg/kg body weight, 48 hours after administration, pancreas
  amount of wild-type K-Ras protein in pancreas: reduced in a concentration dependent manner
Intraperitoneal 40 or 80 mg/kg body weight, 48 hours after administration, spleen
  amount of wild-type K-Ras protein in spleen: reduced in a concentration dependent manner
Suggested from K-Ras degradation in tissues
  transfer property to tissues (molecular kinetics): showed a higher transfer property in the pancreas, colon, kidneys, and spleen as compared with the lungs, liver, and heart
